Test [1] addresses T1, Recombinant human His-tagged Kat6a protein (amino acids 194-810) (Homo sapiens, UniProt Q92794).
T1 construct: Kat6a protein (amino acids 194-810); His
The experiment in a line: Kat6a activity assay (TR-FRET, acetylation of Histone-H4-derived peptide). Conditions: 60 mins at 22° C., 220 nM H4 peptide, 600 nM Acetyl Coenzyme A, read-out: KAT6A - DPF/HAT domain IC50 [mol/l] (arithmetic mean). The test is classed as biochemical. (In TR-FRET formats the signal depends on donor and acceptor labels being close together.)

Test [2] has as its system ESR1 transcription in MVLN cells. Description: MVLN reporter assay: repression of ESR1 transcription (luciferase signal). The test is classed as cell-based. The note with it: Homo sapiens, MVLN, 24 h, luciferase signal after 24 h, read-out: MVLN reporter assay, IC50 [M] (arithmetic mean). A digest of the protocol: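 MVLN cells, expressing ER and stably carrying a vitellogenin A2 ERE-luciferase reporter, treated with compound in duplicate; luciferase read after 24 h with Steadylite plus. Cell density checked in parallel by Alamar Blue fluorescence (530/590 nm, 2 h) before the luciferase read.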
On the technique in general: In a reporter assay the amount or activity of a reporter protein is the signal.

T1 sequence (Q92794 194-810): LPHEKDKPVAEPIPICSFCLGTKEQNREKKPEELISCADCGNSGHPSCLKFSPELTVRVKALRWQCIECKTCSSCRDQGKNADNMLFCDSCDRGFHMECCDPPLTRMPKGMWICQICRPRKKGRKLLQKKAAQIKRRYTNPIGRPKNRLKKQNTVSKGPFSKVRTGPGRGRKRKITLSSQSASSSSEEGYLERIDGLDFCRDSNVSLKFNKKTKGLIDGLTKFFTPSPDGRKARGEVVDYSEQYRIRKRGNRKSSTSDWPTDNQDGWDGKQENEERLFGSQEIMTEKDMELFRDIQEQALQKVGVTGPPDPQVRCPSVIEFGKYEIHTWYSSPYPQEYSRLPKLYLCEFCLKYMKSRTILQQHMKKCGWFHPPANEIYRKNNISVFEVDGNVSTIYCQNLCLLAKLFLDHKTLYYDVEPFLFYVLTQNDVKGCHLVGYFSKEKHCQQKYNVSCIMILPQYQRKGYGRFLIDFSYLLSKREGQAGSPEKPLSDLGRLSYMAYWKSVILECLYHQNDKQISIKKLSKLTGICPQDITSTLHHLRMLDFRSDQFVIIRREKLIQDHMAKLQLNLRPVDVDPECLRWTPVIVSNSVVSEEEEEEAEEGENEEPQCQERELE

On to `Cc1ccc(F)c(S(=O)(=O)NC(=O)c2cc3c(F)cc(N4CCC4)cc3o2)c1F` [Example 88, 6-(Azetidin-1-yl)-N-(2,6-difluoro-3-methylbenzene-1-sulfonyl)-4-fluoro-1-benzofuran-2-carboxamide], for which the figures for the IC50 in test [1] and in test [2] were 127 nM and 4.45e-07 M, respectively.

Consider `CCC(=O)Nc1cccc2c(S(=O)(=O)NC(=O)c3cc4c(F)cc(N5CCC5)cc4o3)cccc12` [Example 89, 6-(Azetidin-1-yl)-4-fluoro-N-(5-propanamidonaphthalene-1-sulfonyl)-1-benzofuran-2-carboxamide], for which the figures for the IC50 in test [1] and in test [2] were 269 nM and more than 2e-05 M, respectively.

For `CCOC(=O)c1cn2cccc(S(=O)(=O)NC(=O)c3cc4c(F)cc(N5CCC5)cc4o3)c2n1` [Example 90, Ethyl 8-{[6-(azetidin-1-yl)-4-fluoro-1-benzofuran-2-carbonyl]sulfamoyl}imidazo[1,2-a]pyridine-2-carboxylate], the figures for the IC50 in test [1] and in test [2] were 300 nM and more than 2e-05 M, respectively.

On to `Cc1nn(C(C)C)cc1S(=O)(=O)NC(=O)c1cc2c(F)cc(N3CCC3)cc2o1` [Example 91, 6-(Azetidin-1-yl)-4-fluoro-N-[3-methyl-1-(propan-2-yl)-1H-pyrazole-4-sulfonyl]-1-benzofuran-2-carboxamide], for which the IC50 in test [1] worked out at 379 nM; in test [2], 3.08e-07 M.

Take `O=C(NS(=O)(=O)c1cc(C(F)(F)F)ccc1NCC(F)F)c1cc2c(F)cc(N3CCC3)cc2o1` [Example 92, 6-(Azetidin-1-yl)-N-{2-[(2,2-difluoroethyl)amino]-5-(trifluoromethyl)benzene-1-sulfonyl}-4-fluoro-1-benzofuran-2-carboxamide]: the IC50 is 464 nM in test [1] and more than 2e-05 M in test [2].

Take `NS(=O)(=O)c1cc(COC(=O)c2cc3c(F)cc(N4CCC4)cc3o2)ccc1OC(F)(F)F` [Example 93, [3-sulfamoyl-4-(trifluoromethoxy)phenyl]methyl 6-(azetidin-1-yl)-4-fluoro-1-benzofuran-2-carboxylate]: the IC50 in test [1] is 1160 nM; in test [2], more than 2e-05 M.

As to `Cc1ncccc1S(=O)(=O)NC(=O)c1cc2c(F)cc(N3CCC3)cc2o1` [Example 94, 6-(Azetidin-1-yl)-4-fluoro-N-(2-methylpyridine-3-sulfonyl)-1-benzofuran-2-carboxamide], the values for the IC50 in test [1] and in test [2] were 1510 nM and more than 2e-05 M, respectively.

Take `CN(C)C(=O)c1cccnc1S(=O)(=O)NC(=O)c1cc2c(F)cc(N3CCC3)cc2o1` [Example 95, 2-{[6-(Azetidin-1-yl)-4-fluoro-1-benzofuran-2-carbonyl]sulfamoyl}-N,N-dimethylpyridine-3-carboxamide]: the IC50 was 1520 nM in test [1] and more than 2e-05 M in test [2].

On to `O=C(NS(=O)(=O)c1ccccc1C1=NOCCO1)c1cc2c(F)cc(N3CCC3)cc2o1` [Example 96, 6-(Azetidin-1-yl)-N-[2-(5,6-dihydro-1,4,2-dioxazin-3-yl)benzene-1-sulfonyl]-4-fluoro-1-benzofuran-2-carboxamide], for which the IC50 in test [1] is 6250 nM; in test [2], more than 2e-05 M.

`CN(C)c1ccc(Cl)c(S(=O)(=O)NC(=O)c2cc3c(F)cc(N4CCC4)cc3o2)c1` [Example 97, 6-(Azetidin-1-yl)-N-[2-chloro-5-(dimethylamino)benzene-1-sulfonyl]-4-fluoro-1-benzofuran-2-carboxamide]: the IC50 was 14000 nM in test [1] and more than 2e-05 M in test [2].

For `NS(=O)(=O)c1cc(OC(=O)c2cc3c(F)cc(N4CCC4)cc3o2)cc2ccccc12` [Example 98, 4-Sulfamoylnaphthalen-2-yl 6-(azetidin-1-yl)-4-fluoro-1-benzofuran-2-carboxylate], the IC50 in test [1] is more than 20000 nM; in test [2], more than 2e-05 M.

On to `CC(=O)c1ccc(Cl)c(S(=O)(=O)NC(=O)c2cc3c(F)cc(N4CCC4)cc3o2)c1` [Example 99, N-(5-Acetyl-2-chlorobenzene-1-sulfonyl)-6-(azetidin-1-yl)-4-fluoro-1-benzofuran-2-carboxamide], for which the IC50 in test [1] came to 272 nM; in test [2], 8.1e-07 M.

In the case of `CC(C)OC(=O)c1ccccc1S(=O)(=O)NC(=O)c1cc2c(F)cc(N3CCC3)cc2o1` [Example 101, Propan-2-yl 2-{[6-(azetidin-1-yl)-4-fluoro-1-benzofuran-2-carbonyl]sulfamoyl}benzoate], the IC50 came out at 121 nM in test [1] and 1.94e-06 M in test [2].

In the case of `COC(=O)CCc1ccccc1S(=O)(=O)NC(=O)c1cc2c(F)cc(N3CCC3)cc2o1` [Example 102, Methyl 3-(2-{[6-(azetidin-1-yl)-4-fluoro-1-benzofuran-2-carbonyl]sulfamoyl}phenyl)propanoate], the results for the IC50 in test [1] and in test [2] were 116 nM and 4.07e-06 M, respectively.

As for `O=C(NS(=O)(=O)c1cc(C(F)(F)F)cnc1Cl)c1cc2c(F)cc(N3CCC3)cc2o1` [Example 103, 6-(Azetidin-1-yl)-N-[2-chloro-5-(trifluoromethyl)pyridine-3-sulfonyl]-4-fluoro-1-benzofuran-2-carboxamide], the IC50 in test [1] was 613 nM; in test [2], 1.02e-05 M.

As to `Cc1nc(N)c(S(=O)(=O)NC(=O)c2cc3c(F)cc(N4CCC4)cc3o2)c(C)c1Cl` [Example 104, N-(2-amino-5-chloro-4,6-dimethylpyridine-3-sulfonyl)-6-(azetidin-1-yl)-4-fluoro-1-benzofuran-2-carboxamide], the IC50 in test [1] is 793 nM; in test [2], 1.05e-05 M.

`O=C(NS(=O)(=O)c1ccc(O)c2ccccc12)c1cc2c(F)cc(N3CCC3)cc2o1` [Example 106, 6-(Azetidin-1-yl)-4-fluoro-N-(4-hydroxynaphthalene-1-sulfonyl)-1-benzofuran-2-carboxamide]: the IC50 was more than 20000 nM in test [1] and more than 2e-05 M in test [2].

Consider `O=C(NS(=O)(=O)c1cccc2c1CCCC2)c1cc2c(F)cc(N3CC(F)C3)cc2o1` [Example 108, 4-Fluoro-6-(3-fluoroazetidin-1-yl)-N-(5,6,7,8-tetrahydronaphthalene-1-sulfonyl)-1-benzofuran-2-carboxamide], for which the IC50 in test [1] worked out at 68.6 nM; in test [2] it was 1.29e-07 M.

`O=C(NS(=O)(=O)c1cccc2c1OCCO2)c1cc2c(F)cc(N3CC(F)C3)cc2o1` [Example 109, N-(2,3-dihydro-1,4-benzodioxine-5-sulfonyl)-4-fluoro-6-(3-fluoroazetidin-1-yl)-1-benzofuran-2-carboxamide]: the IC50 in test [1] is 172 nM; in test [2], 5.92e-07 M.

In the case of `O=C(NS(=O)(=O)c1cccc2c1NCCC2)c1cc2c(F)cc(N3CC(F)C3)cc2o1` [Example 110, 4-Fluoro-6-(3-fluoroazetidin-1-yl)-N-(1,2,3,4-tetrahydroquinoline-8-sulfonyl)-1-benzofuran-2-carboxamide], the IC50 was found to be 208 nM in test [1] and 5.47e-07 M in test [2].

As to `O=C(NS(=O)(=O)c1ccnc2ccccc12)c1cc2c(F)cc(N3CC(F)C3)cc2o1` [Example 111, 4-Fluoro-6-(3-fluoroazetidin-1-yl)-N-(quinoline-4-sulfonyl)-1-benzofuran-2-carboxamide], the IC50 in test [1] was 3080 nM; in test [2], more than 2e-05 M.

As to `CN1CCc2c(cccc2S(=O)(=O)NC(=O)c2cc3c(F)cc(N4CC(F)C4)cc3o2)C1` [Example 112, 4-Fluoro-6-(3-fluoroazetidin-1-yl)-N-(2-methyl-1,2,3,4-tetrahydroisoquinoline-5-sulfonyl)-1-benzofuran-2-carboxamide], the IC50 was 5210 nM in test [1] and more than 2e-05 M in test [2].

For the origin of these results see patent US20240279207A1, “SUBSTITUTED ACYL SULFONAMIDES FOR TREATING CANCER” (The Broad Institute, Inc., priority 2020, published 2024).
